Laboratory results published in patent US20220332700A1, “NOVEL APOPTOSIS SIGNAL-REGULATING KINASE 1 INHIBITORS” (MANKIND PHARMA LTD, priority 2019, published 2022).
pIC50: −log10 of the molar value. Read-outs that look alike come from different tables or passages of the source.

Target: T1, Human ASK1 (Homo sapiens, UniProt Q99683)
T1 construct: expressed in transfected cells; host or cells: HEK293T-AP1
T1 sequence (Q99683 1-1374): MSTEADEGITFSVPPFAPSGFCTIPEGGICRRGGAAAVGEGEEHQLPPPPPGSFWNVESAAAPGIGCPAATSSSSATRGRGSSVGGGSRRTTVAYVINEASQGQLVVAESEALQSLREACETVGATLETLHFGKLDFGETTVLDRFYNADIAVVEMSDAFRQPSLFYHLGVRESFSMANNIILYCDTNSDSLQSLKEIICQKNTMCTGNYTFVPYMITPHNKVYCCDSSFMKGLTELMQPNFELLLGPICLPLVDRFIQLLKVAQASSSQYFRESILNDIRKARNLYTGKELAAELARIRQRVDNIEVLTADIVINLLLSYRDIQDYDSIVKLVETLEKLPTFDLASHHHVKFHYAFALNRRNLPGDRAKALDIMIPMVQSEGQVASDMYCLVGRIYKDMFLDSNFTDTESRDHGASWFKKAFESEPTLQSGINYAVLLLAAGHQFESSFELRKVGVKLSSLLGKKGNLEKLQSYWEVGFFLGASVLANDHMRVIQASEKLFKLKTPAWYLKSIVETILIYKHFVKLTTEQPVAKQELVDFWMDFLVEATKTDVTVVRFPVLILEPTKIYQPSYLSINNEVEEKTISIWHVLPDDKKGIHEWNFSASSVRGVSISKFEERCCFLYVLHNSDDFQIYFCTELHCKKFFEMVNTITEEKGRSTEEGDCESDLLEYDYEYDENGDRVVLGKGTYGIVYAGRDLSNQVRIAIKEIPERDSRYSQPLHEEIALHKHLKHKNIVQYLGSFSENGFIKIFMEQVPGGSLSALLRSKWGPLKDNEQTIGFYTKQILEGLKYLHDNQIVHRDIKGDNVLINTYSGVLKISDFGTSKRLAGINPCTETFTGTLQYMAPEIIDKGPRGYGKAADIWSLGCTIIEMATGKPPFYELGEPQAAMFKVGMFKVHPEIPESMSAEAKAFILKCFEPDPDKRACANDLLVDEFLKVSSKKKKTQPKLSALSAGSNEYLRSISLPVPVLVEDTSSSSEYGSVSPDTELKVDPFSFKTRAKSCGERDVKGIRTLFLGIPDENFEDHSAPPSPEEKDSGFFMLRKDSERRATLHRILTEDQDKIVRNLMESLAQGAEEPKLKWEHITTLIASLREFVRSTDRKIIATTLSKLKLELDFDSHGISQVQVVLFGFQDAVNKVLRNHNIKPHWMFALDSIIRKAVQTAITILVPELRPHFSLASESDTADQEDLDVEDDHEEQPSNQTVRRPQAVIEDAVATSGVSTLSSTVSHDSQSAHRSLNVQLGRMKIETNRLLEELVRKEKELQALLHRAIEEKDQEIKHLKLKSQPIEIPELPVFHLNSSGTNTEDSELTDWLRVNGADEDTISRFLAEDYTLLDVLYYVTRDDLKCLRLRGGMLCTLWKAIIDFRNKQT
Assay: ASK1 Cell Based Assay (phospho p38 read out in hASK1 transfected HEK293T-AP1 cells)
Outline: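 HEK293T-AP1 cells transfected with hASK1, after 24 h treated with compounds for 24 h (0.2% DMSO), then stimulated with 1 mM H2O2 for 1 h with compounds present.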

[1] = HEK293T-AP1 cells, 1 mM hydrogen peroxide, phospho p38, read-out: Cell Based Assay IC50
[2] = comparison with Selonsertib, read-out: ASK1 ph. P38 Cell based Assay (IC50)

SMILES: CC(C)n1cnnc1-c1cccc(N2CCN(c3ccc(N4CCOCC4)cc3)C2=O)n1 [Example 1043, 1-(6-(4-isopropyl-4H-1,2,4-triazol-3-yl)pyridin-2-yl)-3-(4-morpholinophenyl)imidazolidin-2-one]
- pIC50 [1]: 6.85
- pIC50 [2]: 6.85

SMILES: CC(C)n1cnnc1-c1cccc(N2CCN(c3ccc(N4CC(C#N)C4)cc3)C2=O)n1 [Example 1071, 1-(4-(3-(6-(4-isopropyl-4H-1,2,4-triazol-3-yl)pyridin-2-yl)-2-oxoimidazolidin-1-yl)phenyl)azetidine-3-carbonitrile]
- pIC50 [1]: > 7.00
- pIC50 [2]: 7.16

SMILES: CNC(=O)C1CCN(c2ccc(N3CCN(c4cccc(-c5nncn5C(C)C)n4)C3=O)cc2)CC1 [Example 1082, 1-(4-(3-(6-(4-isopropyl-4H-1,2,4-triazol-3-yl)pyridin-2-yl)-2-oxoimidazolidin-1-yl)phenyl)-N-methylpiperidine-4-carboxamide]
- pIC50 [1]: > 7.00
- pIC50 [2]: 7.82

SMILES: CC(C)n1cnnc1-c1cccc(N2CCN(c3ccc(N4CCC(C(=O)N(C)C)CC4)cc3)C2=O)n1 [Example 1097, 1-(4-(3-(6-(4-isopropyl-4H-1,2,4-triazol-3-yl)pyridin-2-yl)-2-oxoimidazolidin-1-yl)phenyl)-N,N-dimethylpiperidine-4-carboxamide]
- pIC50 [1]: > 7.00
- pIC50 [2]: 6.99
